Measured values from patent US20170157228A1, “Immunogenic Polypeptide Composed of HLA-B7 Restricted Tumor Antigen-Derived Optimized Cryptic Peptides, and Uses Thereof” (VAXON BIOTECH, priority 2014, published 2017).
Entries after “also recorded” stand apart in the source; their conditions may differ.

Assays:
[1] = tested on: HLA-B*0702 transgenic mice; experiment: CTL induction in vivo in HLA-B*0702 transgenic mice, ex vivo IFNγ ELISpot of spleen T cells; settings: for result versus the inverted dipeptide sequence, in terms of number of responding mice: dipeptide vaccination twice at 2 weeks interval, response against optimized and cognate native peptides; for mice responding to at least one native peptide / recognition of each native peptide in vaccinated mice: after two vaccinations with the polypeptide
Description: Transgenic Mice. The HLA-B7 H-2 class-I knockout mice were previously described (Rohrlich et al, 2003) and kindly provided by F. Lemonnier (Institut Pasteur, Paris, France).
CTL Induction in vivo in HLA-B*0702 Transgenic Mice. HLA-B*0702 transgenic mice were vaccinated subcutaneously at the base of the tail with 200 μg of optimized dipeptides or 400 μg of Vbx-016 in association with the HV core T13L helper (150 μg) helper peptide and emulsified in Incomplete Freund Adjuvant (IFA) or Montanide ISA51VG (Seppic, Castres, France) twice at two weeks interval.
Seven days after the last vaccination, spleens were removed and T cells were isolated by Ficoll centrifugation and tested ex vivo for the recognition of 10 μM of either the native or optimized peptides. Positive control was Concanavalin A and negative control was medium alone. All conditions were tested in quadriplicates. IFNγ producing T cells was quantified by ELISpot using the Diaclone Kit Murine IFNγ ELISpot.
An immune response was considered positive when there was 1) more than 10 spots difference/10^6 cells between the negative control and the tested peptide and 2) a statistically significant difference between these two groups with T Test (p<0.05).
Each dipeptide was used to vaccinate HLA-B*0702 transgenic mice twice at 2 weeks interval and tested for its capacity to induce an immune response against both optimized peptides and their cognate native counterparts. Dipeptides are described in table 2. In each experiment, the best combination is highlighted in grey.
To evaluate if the Vbx-016 (SEQ ID No: 23) determined in the dipeptidic experiments is optimum, HLA-B*0702 transgenic mice were vaccinated subcutaneously at the base of the tail with 400 μg of Vbx-016 and 150 μg of the HBV core T13L helper peptide emulsified in Incomplete Freund Adjuvant (IFA) or Montanide ISA51VG (Seppic, Castres, France) twice at two weeks interval.

[2] = tested on: human PBMC from healthy HLA-B*0702 donors; experiment: Generation of CTL from human PBMC, IFNγ ELISpot with peptide-loaded T2-B7 cells; assay type: cell-based; settings: for CTL immune response induced by the polypeptide: PBMC culture from HLA-B*0702 healthy donor; for processing of the dipeptide and recognition of optimized and cognate native peptides by induced CTLs: PBMC culture from healthy human donor stimulated with dipeptide
Description: Cells. HLA-B*0702 transfected human T2-B7 cells were previously described (Rohrlich et al, 2003). Cells were grown in penicillin streptomycin FCS 20% supplemented RPMI1640 culture medium.
Generation of CTL from human PBMC. PBMC were collected by leukapheresis from healthy HLA-B*0702 volunteers. Dendritic cells (DC) were produced from adherent cells cultured for seven days with 500 IU/ml GM-CSF and 500 IU/ml IL-4, in complete synthetic medium (AIMV). On day 6, DCs were pulsed with 10 μM of polypeptides overnight. On day 7, CD8+ cells were purified by negative selection with CD8 Dynabeads Untouched Human CD8. CD8+ cells (2×10^5)+CD8− cells (6×10^4) were stimulated with 3×10^4 peptide-pulsed DC in AIMV medium supplemented with 1000 IU/ml IL-6 and 5 IU/ml IL-12, 1 μg/ml anti-CD40 and 500 IU/ml IFNγ in round-bottomed 96-well plates.
From day 7, cultures were restimulated weekly with peptide-loaded DC in the presence of 20 IU/ml IL-2 and 10 ng/ml IL-7, 1 μg/ml anti-CD40 and 500 IU/ml IFNγ.
After the third restimulation, CD8 cells were maintained in AIMV supplemented with 20 IU/ml IL-2 during 7 days. Cultures were starved during one night with AIMV and then were tested in an IFNγ ELISpot assay.
IFNγ ELISpot Assay. For one culture of 96 wells, four pools of 24 wells were collected, CD8 cells were counted and 50 000 CD8 per well were dispatched on the ELISpot plate with 25 000 T2B7 loaded eiher with 10 μM of each native monopeptide or with 10 μM of modified monopeptides composing the polypeptide. Eight replicates of each condition were performed. Positive control was Phytohaemagglutinin A and negative control was T2B7 loaded with an irrelevant peptide not able to bind HLA-B7 molecules.
To evaluate if the junction present in the polypeptide CEA188L9/TERT444A1/MAGE273L9/HER-2/neu246A1 validated in transgenic mice are processed efficiently in humans, human PBMC were stimulated with each dipeptide (CEA188L9/TERT444A1, TERT444A1/MAGE273L9 and MAGE273L9/HER-2/neu246A1) according to the protocol described in the methods. Recognition of the cognate native peptides was evaluated by measuring specific IFNγ producing cells from the CD8+ stimulated by the dipeptide, divided in 4 pools for the test.

[3] = tested on: MAGE-A antigens / tumour cells; settings: recognition of cells loaded with MAGE-A273A6, MAGE-A273I6, MAGE-A273V6; cited from earlier work

SPRLQLSNLAPKHSDCLA (7C1HN3M)
result versus the inverted dipeptide sequence, in terms of number of responding mice [1]: better results than the corresponding inverted sequences; also recorded: better results than the inverted sequence

SPRLQLSNLAPRRLVQLLGPRALVETLAPKHSDCLA [Vbx-016, polypeptide of four optimized cryptic peptides targeting TERT, HER-2/neu, MAGE and CEA for HLA-B7 patients]
mice responding to at least one native peptide [1]: all mice respond to at least one native peptide | recognition of each native peptide in vaccinated mice [1]: each native peptide was recognized at least once in one vaccinated mouse | mice responding to at least one native peptide ([1]; listed as SEQ ID No: 23): all mice responded to at least one native peptide | recognition of each native peptide in vaccinated mice ([1]; listed as SEQ ID No: 23): all the native peptides were recognized at least once in one vaccinated mouse | Number of responding mice/total number of mice ([1]; recognition of CEA188, Helper + adjuvant (IFA or montanide), pooled): 13/14 | Number of responding mice/total number of mice ([1]; recognition of CEA188, Vbx016 + helper + IFA, two vaccinations, T-test <0.05): 8/9 | Number of responding mice/total number of mice ([1]; recognition of CEA188, Vbx016 + helper + Montanide, two vaccinations, T-test <0.05): 5/5 | Number of responding mice/total number of mice ([1]; recognition of CEA188L9, Helper + adjuvant (IFA or montanide), pooled): 13/14 | Number of responding mice/total number of mice ([1]; recognition of CEA188L9, Vbx016 + helper + IFA): 8/9 | Number of responding mice/total number of mice ([1]; recognition of CEA188L9, Vbx016 + helper + Montanide): 5/5 | Number of responding mice/total number of mice ([1]; recognition of HER-2Neu246, Helper + adjuvant (IFA or montanide), pooled): 1/14 | Number of responding mice/total number of mice ([1]; recognition of HER-2Neu246, Vbx016 + helper + IFA): 1/9 | Number of responding mice/total number of mice ([1]; recognition of HER-2Neu246, Vbx016 + helper + Montanide): 0/5 | Number of responding mice/total number of mice ([1]; recognition of HER-2Neu246A1, Helper + adjuvant (IFA or montanide), pooled): 2/14 | Number of responding mice/total number of mice ([1]; recognition of HER-2Neu246A1, Vbx016 + helper + IFA): 2/9 | Number of responding mice/total number of mice ([1]; recognition of HER-2Neu246A1, Vbx016 + helper + Montanide): 0/5 | Number of responding mice/total number of mice ([1]; recognition of MageA273A6, Helper + adjuvant (IFA or montanide), pooled): 2/14 | Number of responding mice/total number of mice ([1]; recognition of MageA273A6, Vbx016 + helper + IFA): 2/9 | Number of responding mice/total number of mice ([1]; recognition of MageA273A6, Vbx016 + helper + Montanide): 0/5 | Number of responding mice/total number of mice ([1]; recognition of MageA273I6, Helper + adjuvant (IFA or montanide), pooled): 3/14 | Number of responding mice/total number of mice ([1]; recognition of MageA273I6, Vbx016 + helper + IFA): 1/9 | Number of responding mice/total number of mice ([1]; recognition of MageA273I6, Vbx016 + helper + Montanide): 2/5 | Number of responding mice/total number of mice ([1]; recognition of MageA273L9, Helper + adjuvant (IFA or montanide), pooled): 12/14 | Number of responding mice/total number of mice ([1]; recognition of MageA273L9, Vbx016 + helper + IFA): 7/9 | Number of responding mice/total number of mice ([1]; recognition of MageA273L9, Vbx016 + helper + Montanide): 5/5 | Number of responding mice/total number of mice ([1]; recognition of MageA273V6, Helper + adjuvant (IFA or montanide), pooled): 2/14 | Number of responding mice/total number of mice ([1]; recognition of MageA273V6, Vbx016 + helper + IFA): 1/9 | Number of responding mice/total number of mice ([1]; recognition of MageA273V6, Vbx016 + helper + Montanide): 1/5 | Number of responding mice/total number of mice ([1]; recognition of Tert444, Helper + adjuvant (IFA or montanide), pooled): 12/14 | Number of responding mice/total number of mice ([1]; recognition of Tert444, Vbx016 + helper + IFA): 8/9 | Number of responding mice/total number of mice ([1]; recognition of Tert444, Vbx016 + helper + Montanide): 4/5 | Number of responding mice/total number of mice ([1]; recognition of Tert444A1, Helper + adjuvant (IFA or montanide), pooled): 14/14 | Number of responding mice/total number of mice ([1]; recognition of Tert444A1, Vbx016 + helper + IFA): 9/9 | Number of responding mice/total number of mice ([1]; recognition of Tert444A1, Vbx016 + helper + Montanide): 5/5 | Number of responding mice/total number of mice ([1]; recognition of Vbx-016, Helper + adjuvant (IFA or montanide), pooled): 14/14 | Number of responding mice/total number of mice ([1]; recognition of Vbx-016, Vbx016 + helper + IFA): 9/9 | Number of responding mice/total number of mice ([1]; recognition of Vbx-016, Vbx016 + helper + Montanide): 4/4 | Number of responding mice/total number of mice ([1]; response to two or more native epitopes, Helper + adjuvant (IFA or montanide), pooled, listed as SEQ ID No: 23): a large majority of vaccinated mice responded to two or more cognate native peptides | Number of responding mice/total number of mice ([1]; response to two or more native epitopes, Vbx016 + helper + IFA): 8/9 | Number of responding mice/total number of mice ([1]; response to two or more native epitopes, Vbx016 + helper + Montanide): 5/5 | Number of responding mice/total number of mice ([1]; response to two or more native epitopes, column Helper + adjuvant (IFA or montanide), pooled): 13/14 | Number of responding mice/total number of mice ([1]; response to two or more native epitopes, column Helper + adjuvant (IFA or montanide), pooled, listed as Vbx016): 13/14 | CTL immune response induced by the polypeptide [2]: A polyspecific response was induced and several native peptides were recognized by the induced CTLs | CTL immune response induced by the polypeptide ([2]; listed as SEQ ID No: 23): polyspecific CTLs immune response; also recorded: several native peptides were recognized; also recorded: induces a specific CD8^+ T cells response against at least one and usually two or more peptides

APRRLVQLLAPKHSDCLA (7T5HN3M)
result versus the inverted dipeptide sequence, in terms of number of responding mice [1]: better results than the corresponding inverted sequences; also recorded: better results than the inverted sequence

APRRLVQLLGPRALVETL (7T5M1M)
result versus the inverted dipeptide sequence, in terms of number of responding mice [1]: better results than the corresponding inverted sequences; also recorded: better results than the inverted sequence | processing of the dipeptide and recognition of optimized and cognate native peptides by induced CTLs [2]: efficiently processed in vitro in humans

GPRALVETL (7M1M)
MAGE-A antigens targeted by elicited CTLs [3]: targeted six MAGE-A antigens (-A1, -A2, -A3, -A4, -A6, and -A12)

GPRALVETLAPKHSDCLA (7M1HN3M)
result versus the inverted dipeptide sequence, in terms of number of responding mice [1]: better results than the corresponding inverted sequences; also recorded: better results than the inverted sequence | processing of the dipeptide and recognition of optimized and cognate native peptides by induced CTLs [2]: efficiently processed in vitro in humans

SPRLQLSNLGPRALVETL (7C1M1M)
result versus the inverted dipeptide sequence, in terms of number of responding mice [1]: the same results

GPRALVETLSPRLQLSNL (7M1C1M)
result versus the inverted dipeptide sequence, in terms of number of responding mice [1]: the same results

SPRLQLSNLAPRRLVQLL (7C1T5M)
result versus the inverted dipeptide sequence, in terms of number of responding mice [1]: better results than the corresponding inverted sequences; also recorded: better results than the inverted sequence | processing of the dipeptide and recognition of optimized and cognate native peptides by induced CTLs [2]: efficiently processed in vitro in humans
